Data as given in US10647679B2, “N-methyl-D-aspartate receptor (NMDAR) potentiators, pharmaceutical compositions, and uses related thereto” (Emory University, priority 2015, dated 2020).
Like-named read-outs stand apart in the source and are kept apart here.

How the values were obtained:
Assay type in all cases: cell-based
[1] = biological target: T1, recombinant rat GluN1/GluN2B (Rattus norvegicus, UniProt Q00960); assay: Two-electrode voltage-clamp (TEVC) recordings in Xenopus laevis oocytes, GluN1/GluN2B; details: for I30 μM/Icontrol (mean ± SEM, %) GluN2B: 30 μM compound, Tables 5-7
T1 construct: expressed in transfected cells; host or cells: Xenopus laevis oocytes (Ecocyte) injected with in vitro transcribed cRNA
T1 sequence (Q00960 27-1482, other chains not shown): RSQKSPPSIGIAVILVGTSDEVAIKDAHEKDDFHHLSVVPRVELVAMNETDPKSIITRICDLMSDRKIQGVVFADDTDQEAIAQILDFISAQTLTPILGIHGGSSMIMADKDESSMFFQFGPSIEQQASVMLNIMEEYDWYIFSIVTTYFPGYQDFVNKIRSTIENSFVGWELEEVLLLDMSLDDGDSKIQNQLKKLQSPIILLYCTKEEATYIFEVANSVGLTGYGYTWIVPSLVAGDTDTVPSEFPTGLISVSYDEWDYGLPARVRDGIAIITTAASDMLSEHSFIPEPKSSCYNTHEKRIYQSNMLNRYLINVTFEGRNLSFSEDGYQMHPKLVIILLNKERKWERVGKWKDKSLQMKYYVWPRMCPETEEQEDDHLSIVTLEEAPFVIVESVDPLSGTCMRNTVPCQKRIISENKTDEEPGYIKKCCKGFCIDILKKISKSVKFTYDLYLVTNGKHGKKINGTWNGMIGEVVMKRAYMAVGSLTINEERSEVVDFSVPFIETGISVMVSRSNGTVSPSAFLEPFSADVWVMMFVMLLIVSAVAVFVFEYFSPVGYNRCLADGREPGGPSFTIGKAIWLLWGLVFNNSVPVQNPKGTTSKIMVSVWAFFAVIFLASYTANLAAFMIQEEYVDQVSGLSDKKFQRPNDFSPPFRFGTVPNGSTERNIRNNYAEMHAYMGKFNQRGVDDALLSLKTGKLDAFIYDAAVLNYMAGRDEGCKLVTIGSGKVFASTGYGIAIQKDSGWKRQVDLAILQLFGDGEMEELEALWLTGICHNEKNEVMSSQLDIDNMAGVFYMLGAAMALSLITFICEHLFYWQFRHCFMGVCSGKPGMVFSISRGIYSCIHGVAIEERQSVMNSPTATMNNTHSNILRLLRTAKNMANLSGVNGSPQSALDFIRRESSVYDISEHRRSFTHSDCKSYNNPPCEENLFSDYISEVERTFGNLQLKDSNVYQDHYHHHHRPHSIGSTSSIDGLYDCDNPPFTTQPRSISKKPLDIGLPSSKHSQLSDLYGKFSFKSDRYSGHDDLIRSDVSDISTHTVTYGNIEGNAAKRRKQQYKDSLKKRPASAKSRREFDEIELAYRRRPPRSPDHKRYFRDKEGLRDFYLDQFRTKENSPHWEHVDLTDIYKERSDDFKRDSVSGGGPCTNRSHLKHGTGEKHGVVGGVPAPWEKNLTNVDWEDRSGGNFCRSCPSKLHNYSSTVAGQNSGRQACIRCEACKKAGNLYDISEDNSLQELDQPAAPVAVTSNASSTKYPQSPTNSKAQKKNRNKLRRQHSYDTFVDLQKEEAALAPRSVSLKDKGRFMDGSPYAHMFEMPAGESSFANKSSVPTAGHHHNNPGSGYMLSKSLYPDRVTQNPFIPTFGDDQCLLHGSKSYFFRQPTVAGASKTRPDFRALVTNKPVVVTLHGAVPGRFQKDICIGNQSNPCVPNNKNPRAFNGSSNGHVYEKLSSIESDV
Method: (§1) Data are from between 3-26 oocytes from 2-5 frogs for each compound and receptor tested.
(§2) Two-electrode voltage-clamp recordings were performed in Xenopus laevis oocytes (Ecocyte) expressing recombinant rat GluN1/GluN2A, GluN1/GluN2B, GluN1/GluN2C, GluN1/GluN2D. cRNA was transcribed in vitro (Ambion), diluted with nuclease free water, and injected at a ratio of 1:2 GluN1:GluN2 (5-10 ng total cRNA). The oocytes were kept in Barth's solution comprised of (in mM) 88 NaCl, 5 Tris-HCl, 2.4 NaHCO3, 1 KCl, 0.84 MgSO4, 0.41 CaCl2, and 0.33 Ca(NO3)2 at pH 7.4 at 15-17° C. for two to five days before experiments. Oocytes were placed into a perfusion chamber and continually washed with recording solution containing (in mM) 90 NaCl, 1.0 KCl, 0.5 BaCl2, 0.005 EDTA, and 10 HEPES at pH 7.4 (23° C.). Voltage clamp recordings were conducted at a holding potential of −40 mV. All compounds were made as 20 mM stock solutions in DMSO and dissolved to reach the final concentration in recording solution. Final DMSO content was 0.05-0.5% (vol/vol). Some oocytes expressing GluN1/GluN2A were pretreated with […] BAPTA-AM for 10 minutes or injected with […] of 2 mM K-BAPTA to prevent gradual run-up of the current response.

[2] = biological target: T2, recombinant rat GluN1/GluN2C (Rattus norvegicus, UniProt Q00961); assay: Two-electrode voltage-clamp (TEVC) recordings in Xenopus laevis oocytes, GluN1/GluN2C; details: for I30 μM/Icontrol (mean ± SEM, %) GluN2C: 30 μM compound, Tables 5-7
T2 construct: expressed in transfected cells; host or cells: Xenopus laevis oocytes (Ecocyte) injected with in vitro transcribed cRNA
Method: as §1, §2

[3] = biological target: T3, recombinant rat GluN1/GluN2D (Rattus norvegicus, UniProt Q62645); assay: Two-electrode voltage-clamp (TEVC) recordings in Xenopus laevis oocytes, GluN1/GluN2D; details: for I30 μM/Icontrol (mean ± SEM, %) GluN2D: 30 μM compound, Tables 5-7
T3 construct: expressed in transfected cells; host or cells: Xenopus laevis oocytes (Ecocyte) injected with in vitro transcribed cRNA
T3 sequence (Q62645 28-1323, other chains not shown): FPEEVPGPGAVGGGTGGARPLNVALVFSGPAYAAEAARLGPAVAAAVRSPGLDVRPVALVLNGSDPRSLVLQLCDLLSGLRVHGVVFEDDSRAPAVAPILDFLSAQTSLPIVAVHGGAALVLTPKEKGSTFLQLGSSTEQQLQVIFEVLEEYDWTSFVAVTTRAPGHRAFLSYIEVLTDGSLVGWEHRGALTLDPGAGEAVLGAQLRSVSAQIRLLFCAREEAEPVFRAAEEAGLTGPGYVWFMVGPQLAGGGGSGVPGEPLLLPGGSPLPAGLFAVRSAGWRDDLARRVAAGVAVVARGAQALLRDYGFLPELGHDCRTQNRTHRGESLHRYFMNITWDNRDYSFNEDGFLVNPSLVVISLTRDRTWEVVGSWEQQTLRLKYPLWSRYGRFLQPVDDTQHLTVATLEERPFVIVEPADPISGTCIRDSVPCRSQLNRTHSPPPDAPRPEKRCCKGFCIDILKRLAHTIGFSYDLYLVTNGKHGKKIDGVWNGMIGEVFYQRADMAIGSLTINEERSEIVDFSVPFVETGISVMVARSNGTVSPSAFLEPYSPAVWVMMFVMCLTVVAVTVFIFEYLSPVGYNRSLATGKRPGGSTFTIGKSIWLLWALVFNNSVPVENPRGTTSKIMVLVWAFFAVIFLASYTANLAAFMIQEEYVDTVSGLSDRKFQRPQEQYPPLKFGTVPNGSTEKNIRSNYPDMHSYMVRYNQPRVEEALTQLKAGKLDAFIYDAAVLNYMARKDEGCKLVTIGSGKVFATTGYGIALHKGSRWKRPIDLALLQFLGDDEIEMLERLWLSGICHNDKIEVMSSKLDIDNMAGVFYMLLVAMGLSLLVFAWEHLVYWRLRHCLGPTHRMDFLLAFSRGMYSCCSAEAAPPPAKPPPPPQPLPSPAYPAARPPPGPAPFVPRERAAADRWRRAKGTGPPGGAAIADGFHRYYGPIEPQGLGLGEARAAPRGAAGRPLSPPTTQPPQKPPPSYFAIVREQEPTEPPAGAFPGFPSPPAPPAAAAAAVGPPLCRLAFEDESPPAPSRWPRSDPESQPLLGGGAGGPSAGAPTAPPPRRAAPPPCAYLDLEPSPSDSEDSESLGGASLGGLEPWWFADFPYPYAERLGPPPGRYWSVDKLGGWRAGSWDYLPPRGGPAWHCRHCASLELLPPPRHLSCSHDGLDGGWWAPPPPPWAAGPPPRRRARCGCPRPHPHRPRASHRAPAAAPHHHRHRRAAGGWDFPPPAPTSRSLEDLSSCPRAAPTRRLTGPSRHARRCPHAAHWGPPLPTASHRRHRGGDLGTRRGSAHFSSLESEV
Method: as §1, §2

[4] = biological target: T4, recombinant rat GluN1/GluN2B (Rattus norvegicus, UniProt P35439+Q00960); assay: Two-electrode voltage-clamp (TEVC) recordings in Xenopus laevis oocytes, GluN1/GluN2B; details: for EC50: fitted when potentiation at 30 μM exceeded 120%, Tables 3, 5-7, read-out: EC50 (max.) (μM %) GluN2B: fitted EC50
T4 construct: expressed in transfected cells; host or cells: Xenopus laevis oocytes (Ecocyte) injected with in vitro transcribed cRNA
T4 sequence (Q00960 27-1482, other chains not shown): as the sequence (Q00960 27-1482, other chains not shown) above
Method: as §1, §2

[5] = biological target: T5, recombinant rat GluN1/GluN2C (Rattus norvegicus, UniProt P35439+Q00961); assay: Two-electrode voltage-clamp (TEVC) recordings in Xenopus laevis oocytes, GluN1/GluN2C
T5 construct: expressed in transfected cells; host or cells: Xenopus laevis oocytes (Ecocyte) injected with in vitro transcribed cRNA
Method: as §1, §2

[6] = percentage of the initial glutamate (100 μM) and glycine (30 μM) current, read-out: EC50 (max.) (μM %) GluN2B: fitted maximum response
[7] = untitled tables after drawing 25 and drawing 36, read-out: EC50 (μM) GluN2C
[8] = maximum potentiation, response without modulator = 100%
[9] = percentage of the initial glutamate (100 μM) and glycine (30 μM) current

Q: What does the source list for CC=CCC(=O)N1CCc2cc(OC)ccc2C1COc1ccc(OC)cc1 (stereo not drawn) [1180-235]?
A: GluN2B response % at 30 µM [1]: 103% at 30; GluN2C response % at 30 µM [2]: 184% at 30; GluN2D response % at 30 µM [3]: 222% at 30

Q: CCOc1ccc(OC[C@@H]2c3ccc(OC(C)C)cc3CCN2C(=O)c2ccc(Cl)c(Cl)c2)cc1 [(S)-(−)-1180-103] was tested. Which EC50 [4] did it give?
A: 0.94 µM

Q: What about the Emax [4, 6] of the same compound?
A: 163%

Q: And the “I30 μM/Icontrol (mean ± SEM, %) GluN2B” value [1]?
A: 153%

Q: What about the “I30 μM/Icontrol (mean ± SEM, %) GluN2C” value [2] of the same compound?
A: 114%

Q: What about the “GluN2C potentiation at 3 μM” value ([2]; at 3 μM, footnote c of Table 7) of the same compound?
A: exceeded 120%

Q: And the “I30 μM/Icontrol (mean ± SEM, %) GluN2D” value [3]?
A: 102%

Q: And the “GluN2D potentiation at 3 μM” value ([3]; at 3 μM, footnote c of Table 7)?
A: exceeded 120%

Q: Which “GluN2B response % at 30 µM” value [1] does the source give for COc1ccc(OCC2c3ccc(OC)cc3CCN2C(=O)C=CC(F)(F)F)cc1 (stereo not drawn) [1180-253] here?
A: 101% at 30

Q: What about the EC50 [2, 7] of the same compound?
A: 7 µM

Q: What about the EC50 ([3]; untitled tables after drawing 25 and drawing 36, read-out: EC50 (μM) GluN2D) of the same compound?
A: 9 µM

Q: Which “GluN2B response % at 30 µM” value [1] does the source give for COc1ccc(OCC2c3ccc(OC)cc3CCN2C(=O)C=CCl)cc1 (stereo not drawn) [1180-251] here?
A: 96% at 30

Q: What about the “GluN2C response % at 30 µM” value [2] of the same compound?
A: 99% at 30

Q: And the “GluN2D response % at 30 µM” value [3]?
A: 88% at 30

Q: With COc1ccc(OCC2c3ccc(OC)cc3CCN2C(=O)c2coc(Cl)n2)cc1 (stereo not drawn) [1180-247] as the compound, how does the “GluN2B response % at 30 µM” value [1] read?
A: 99% at 30

Q: And the EC50 [5, 7]?
A: 65 µM

Q: What about the “GluN2D response % at 100 μM” value ([3]; at 100 μM) of the same compound?
A: 223% at 100

Q: COc1ccc(OCC2c3ccc(OC(C)C)cc3CCN2C(=S)c2cccc(Cl)c2)cc1 (racemic) [1180-163] was tested. Which “I10 μM/Icontrol (mean ± SEM, %) GluN2B” value ([1]; 10 μM compound, Table 3) did it give?
A: 212%

Q: And the EC50 ([1]; fitted when potentiation at 30 μM exceeded 120%, Tables 3, 5-7, read-out: EC50 (max.) (μM %) GluN2B: fitted EC50)?
A: 0.11 µM

Q: And the “GluN2B EC50 (μM)/Max %: Max %” value [1, 8]?
A: 262%

Q: What about the “EC50 (max.) (μM %) GluN2B: fitted maximum response” value [1, 9] of the same compound?
A: (228%)

Q: And the “I10 μM/Icontrol (mean ± SEM, %) GluN2C” value ([2]; 10 μM compound, Table 3)?
A: 272%

Q: What about the “EC50 & Max Effect: 2C Max (%)” value ([2]; Tables 11-13) of the same compound?
A: 247%

Q: What about the EC50 ([2]; Tables 11-13, read-out: EC50 & Max Effect: 2C) of the same compound?
A: 0.43 µM

Q: And the EC50 ([2]; fitted when potentiation at 30 μM exceeded 120%, Tables 3, 5-7, read-out: EC50 (max.) (μM %) GluN2C: fitted EC50)?
A: 0.32 µM

Q: And the “GluN2C EC50 (μM)/Max %: Max %” value [2, 8]?
A: 247%

Q: What about the “EC50 (max.) (μM %) GluN2C: fitted maximum response” value [2, 9] of the same compound?
A: (273%)

Q: What about the “I10 μM/Icontrol (mean ± SEM, %) GluN2D” value ([3]; 10 μM compound, Table 3) of the same compound?
A: 231%

Q: And the “EC50 & Max Effect: 2D Max (%)” value ([3]; Tables 11-13)?
A: 249%

Q: And the EC50 ([3]; Tables 11-13, read-out: EC50 & Max Effect: 2D)?
A: 0.43 µM

Q: What about the EC50 ([3]; fitted when potentiation at 30 μM exceeded 120%, Tables 3, 5-7, read-out: EC50 (max.) (μM %) GluN2D: fitted EC50) of the same compound?
A: 0.14 µM

Q: And the “GluN2D EC50 (μM)/Max %: Max %” value [3, 8]?
A: 249%

Q: What about the “EC50 (max.) (μM %) GluN2D: fitted maximum response” value [3, 9] of the same compound?
A: (260%)

Q: For COc1ccc(OCC2c3cc(OC)c(OC)cc3CCN2C(=O)c2cccc(Br)c2)cc1 (stereo not drawn) [compound 1391], which Emax ([5]; Tables 11-13, read-out: EC50 & Max Effect: 2C Max (%)) is on record?
A: 145%

Q: And the “EC50 & Max Effect: 2D Max (%)” value ([3]; Tables 11-13)?
A: 188%

Q: For CCOc1ccc(OCC2c3ccc(OC(C)C)cc3CCN2C(=O)C=C(C)C(F)(F)F)cc1 (stereo not drawn) [1180-263], which “GluN2B response % at 30 µM” value [1] is on record?
A: 145% at 30

Q: What about the “GluN2C response % at 30 µM” value [2] of the same compound?
A: 165% at 30

Q: What about the “GluN2D response % at 30 µM” value [3] of the same compound?
A: 146% at 30

Q: Which “I30 μM/Icontrol (mean ± SEM, %) GluN2B” value [1] does the source give for CCOc1ccc(OC[C@H]2c3ccc(OC(C)C)cc3CCN2C(=O)c2cccc(C(F)(F)F)c2)cc1 [(R)-(+)-1180-92] here?
A: 75%

Q: What about the “I30 μM/Icontrol (mean ± SEM, %) GluN2C” value [2] of the same compound?
A: 73%

Q: What about the “I30 μM/Icontrol (mean ± SEM, %) GluN2D” value [3] of the same compound?
A: 75%

Q: For CCOc1ccc(OCC2c3ccc(OC(C)C)cc3CCN2C(=O)c2cccc(Br)c2)cc1 (stereo not drawn) [1180-86], which Emax ([4]; maximum potentiation, response without modulator = 100%, read-out: GluN2B EC50 (μM)/Max %: Max %) is on record?
A: 138%

Q: And the Emax ([5]; maximum potentiation, response without modulator = 100%, read-out: GluN2C EC50 (μM)/Max %: Max %)?
A: 132%

Q: Which “GluN2B response % at 30 µM” value [1] does the source give for COc1ccc(OCC2c3ccc(OC)cc3CCN2C(=O)c2cnc(Cl)s2)cc1 (stereo not drawn) [1180-241] here?
A: 88% at 30

Q: And the “GluN2C response % at 30 µM” value [2]?
A: 114% at 30

Q: What about the “GluN2D response % at 30 µM” value [3] of the same compound?
A: 131% at 30

Q: Which results are given for COc1ccc(OCC2c3cc(OC)c(OC)cc3CCN2C(=S)c2cccc(Cl)c2)cc1 (racemic) [1180-161]?
A: EC50 & Max Effect: 2C (μM) [2]: Inactive; EC50 & Max Effect: 2D (μM) [3]: Inactive

Q: How did the “EC50 & Max Effect: 2C (μM)” value [2] turn out when COc1ccc(OCC2c3cc(OC)c(OC)cc3CCN2C(=S)c2cccc(Br)c2)cc1 (racemic) [1180-157] was run?
A: Inactive

Q: And the “EC50 & Max Effect: 2D (μM)” value [3]?
A: Inactive

Q: Which results are given for CCOc1ccc(OC[C@H]2c3ccc(OC(C)C)cc3CCN2C(=S)c2cccc(F)c2)cc1 [(R)-(+)-1180-154]?
A: I30 μM/Icontrol (mean ± SEM, %) GluN2B [1]: 95%; I30 μM/Icontrol (mean ± SEM, %) GluN2C [2]: 58%; I30 μM/Icontrol (mean ± SEM, %) GluN2D [3]: 74%

Q: CCOc1ccc(OCC2c3ccc(OC(C)C)cc3CCN2C(=O)c2cccc(C(F)(F)F)c2)cc1 (stereo not drawn) [1180-92] was tested. Which EC50 [4] did it give?
A: 2.5 µM

Q: And the Emax [4, 6]?
A: 122%
